Data on 89 molecules can be found in a melting point compilation (Tetko et al.; mined from patent text by program, amines drawn as free bases though some values may be those of a salt).

Molecules are shown by their SMILES.

Turning to `CCCCOC(=O)C(CC(C)C)NC(=O)c1cc([N+](=O)[O-])cc([N+](=O)[O-])c1` (centres undefined), the melting point (as a rule, the temperature, or range, at which the solid turns liquid) is 95 to 98 °C. As for `O=S(=O)(Cc1ccc(Cl)c(Cl)c1)Cc1ccc(Cl)c(Cl)c1`, the figure is 177 °C; as for `C=CCc1cc2c(c(CC=C)c1O)CCC(=O)N2CCCNC(N)=O`, 203 to 204 °C. As for `COc1ccc(-n2nnc(-c3ccc(Cl)cc3F)c2N)cc1`, the figure is 148 to 150 °C; as for `CC(=O)NC(NC(=O)c1cc(C)cc(C)c1)C(N)=O` (centres undefined), 244 to 245 °C; as for `COc1ccc(CCCCc2ccc(OC)c(OC)c2OC)cc1OC`, 165 to 167 °C. As for `O=C(N[C@H](Cc1ccc(C(F)(F)F)cc1)[C@@H](O)c1ccccc1F)c1ccc(F)c2ccccc12` (racemic), the figure is 190 to 191 °C; as for `CCC1CC(=O)N(Cc2cccc(NS(C)(=O)=O)c2)N=C1c1ccc(OC)c(OC2CCCC2)c1` (centres undefined), 113 °C; as for `CCC(C)c1ccc2c(c1)C(=O)N(c1ccc3c(ccn3C)c1)C2` (centres undefined), 146 to 147 °C. `CC(C)(C)CCn1c(=O)c(=NNc2ccccc2)c(=O)n(-c2ccccc2F)c2ccccc21` had a melting point of 112 to 114 °C. Then `Cn1c(=O)[nH]c2cc(Cl)cc(Cl)c2c1=O`, with 247 to 250 °C; and `CN(c1cccc2cc(-c3ncc(CN4CCS(=O)(=O)CC4)s3)[nH]c12)S(=O)(=O)c1cccs1`, with 225 to 226 °C.

`CC(C)(C)OC(=O)COc1coc(CN2CCCC2)cc1=O` had a melting point of 93 to 94 °C. As for `COc1cc(NC(=N)Nc2ccc3c4c(cccc24)CC3)cc2ccccc12`, the figure is 191 to 192 °C. Then `O=C1CCC(c2ccc(-n3cnc4c3CCCC4)cc2)=NN1`, with 296 to 297 °C; and `CCOC(=O)C(=C1SC=C(O)S1)S(C)(=O)=O`, with 145 to 147 °C. `CC(=O)N(O)CCc1ccc2c(c1)C(=O)c1ccccc1CO2`: the melting point fell in the range of 113 to 115 °C.

In the case of `COc1cccc(-n2nc(C)c3ccc([N+](=O)[O-])cc32)c1C#N`, the melting point was 244 °C.

`O=C1CCc2ccc(OCCCCN3CCN(c4cccc5c4CCCC5=O)CC3)nc2N1` returned a melting point of 169 to 170 °C.

For `CC(C)(C)Oc1ccc(C(=O)NCCCCCCCNC(=O)c2ccc(OC(C)(C)C)cc2)cc1`, the melting point was in the range of 135 to 136 °C. Molecule `OC(c1ccccc1)C1CCN(CCCc2ccccc2)CC1` (centres undefined) registered a melting point of 87 to 88 °C. With `Cc1csc2nc(N3CCC(C(=O)O)CC3)nc(NCc3ccc(F)cc3)c12`, the melting point is 279 °C.

`C[C@@](N)(Cc1ccc(OC(F)(F)F)cc1)C(=O)Nc1cc(Cl)cc(Cl)c1` showed a melting point of over 200 °C.

`O=C1C(=CN2CCOCC2)c2ccccc2N1c1cccc(Cl)c1` showed a melting point of 130 to 132 °C. `CNC(=O)Nc1ccsc1C(=O)OC` gave a melting point of 141 to 142 °C. Consider `c1ccc2c(c1)CSc1nnnn1-2`, for which the melting point came to 137 °C. As for `Cc1cccc(NC(=O)OC(C)(C)C)c1COc1cccn2c(C)c(C)nc12`, the figure is 128 to 131 °C. `CC1Oc2ccc(CN3CCN(c4ccc(C(=O)O)cn4)CC3)cc2NC1=O` (centres undefined) registered a melting point of 243 to 248 °C.

In the case of `BrC/C(=C(\CBr)c1ccccc1)c1ccccc1`, the melting point is 98 °C. `O=C(NCC1CCN(C(=O)OCc2ccccc2)CC1)c1ccc(O)cc1` registered a melting point of 122 to 123 °C. As for `CCNC(=N)N(C(=N)NCC)c1cc(C(C)(C)C)c2c(c1)C(C)(C)CO2`, the figure is over 290 °C; as for `C/C(=C\CC1OC(=O)NC1=O)c1cccc(Cc2nc(-c3ccccc3)oc2C)c1` (centres undefined), 138 to 139 °C; as for `COc1cc2nc(CSc3ncnc4[nH]cnc34)n(-c3ccccc3Cl)c(=O)c2cc1OC`, 160 to 180 °C. As for `ClCc1cc2ccccc2nc1I`, the figure is 138 to 140 °C.

As to `Cc1c(C#N)ccc2nc(N)nc(N)c12`, the melting point was over 270 °C.

In turn, `CCCc1nn(C)c2c(=O)[nH]c(-c3cc(S(=O)(=O)Cl)cc4c3OCC4)nc12` gave a melting point of 221 to 222 °C.

With `CC(=O)C1CCC2C3CCC4CC(OC(=O)C(F)(F)F)CCC4(C)C3C(=O)CC12C` (centres undefined), the melting point is 107 to 108 °C. As for `CNc1cccc2c1OC1(CC1)C2=O`, the figure is 98.2 °C. As for `CC(=O)Oc1ccc(S(=O)(=O)ON=C2c3ccccc3-c3ccccc32)cc1`, the figure is 167 to 168 °C. As to `c1ccc2c(SCc3ccncc3)ncnc2c1`, the melting point lay within 117 to 118 °C.

As to `CC1(C)C(=O)Nc2cc3[nH]c(CCC(=O)O)nc3cc21`, the melting point was 130 to 135 °C.

As for `COCOc1ccc(OC)c(-c2ccc(C[C@H](NC(=O)c3c(Cl)cccc3Cl)C(=O)O)cc2)c1OC`, the melting point was in the range of 156 to 157 °C. As for `NC(=O)Cc1cc(Oc2ccc3c(ccn3C(=O)Nc3ccc(CN4CCCC4)c(C(F)(F)F)c3)c2)ncn1`, the figure is 123 to 124 °C; as for `O=C(NCCO)/C(=C/c1ccc(OC(F)F)cc1)NC(=O)c1ccc(OCCc2ccc(Cl)cc2)cc1`, 160 to 162 °C; as for `COc1cc(C(=O)C(=O)N2C3CCCC2C(=O)N(CCCCc2ccccc2)C3=O)cc(OC)c1OC`, 101 to 103 °C. `Cc1sc2ccccc2c1C=O` came in with a melting point of 95 to 96 °C. Then `COc1cc2c3c(c1)c(=O)c(C(=O)O)cn3CCC2`, with 253 to 257 °C. Molecule `Cc1nc2c(OCc3c(Cl)ccc(N(C)C(=O)CO)c3Cl)cccn2c1Br` gave a melting point of 217 to 218 °C. `CS(=O)(=O)c1cccc(-n2c(=O)c(CCCc3ccncc3)cc3cccnc32)c1` returned a melting point of 127 to 131 °C. As for `COc1ccc(C2=C(C#N)C(c3cccc4nonc34)c3c[nH]nc3N2)cc1` (centres undefined), the figure is 244 °C; as for `Cc1cccc(C(=O)P2(=O)Oc3ccccc3-c3ccccc32)c1` (centres undefined), 108 to 111 °C. As for `CCCCCc1c(-c2ccc3c(Br)c(OCC(=O)O)ccc3c2)oc2ccccc12`, the figure is 159 to 161 °C. Turning to `CC(C)(C)OC(=O)NC(Cc1ccccc1)C(=O)NC(Cc1ccc(C(F)(F)F)cc1)C(O)c1ccc(F)cc1` (mixture of isomers), the melting point lay within 230 to 231 °C.

Consider `COC(=O)OCC(COC(=O)OC)OCn1cnc2c(=O)[nH]c(N)nc21`, for which the melting point is 204 to 206 °C. As for `CC(C)COc1ccc(S(C)(=O)=O)cc1C(=O)O`, the figure is 149 to 153 °C; as for `CC(=O)Oc1cc(C(C)C)c(OC(C)=O)c(C(C)C)c1`, 73.5 to 75 °C. As for `CS(=O)(=O)c1ccc(-c2cnn(CC(=O)c3ccc(OC(F)(F)F)cc3)c(=O)c2-c2ccc(F)cc2)cc1`, the figure is 160 to 161 °C; as for `N#Cc1cc(C=C2SC(=S)NC2=O)cc(O)c1O`, over 350 °C. Then `CC(/C=C/C(=O)N1CCCc2cc3c(cc21)C(C)(C)CCC3(C)C)=C\C(=O)O`, with 225 to 227 °C; and `COC(=O)C1C(=O)CC(=O)CC1C` (centres undefined), with 122 to 123 °C; and `Cc1nn(-c2ccccn2)c2[nH]c3ccc(N)cc3c(=O)c12`, with 260 to 262 °C. In the case of `COC(=O)NCCCCC(=O)OC[C@@H]1CC(c2ccc(-c3ccc(N4C[C@H](Cn5ccnn5)OC4=O)cc3F)cn2)=NO1`, the melting point stood at 90 °C. As for `O=C(Cl)N1CCC(N2CCCCC2)CC1`, the figure is 63.8 °C. Then `CCOC(=O)c1cc(O)c2nc(C3CC3)n(C)c2c1`, with 201 to 202 °C; and `COc1ccc(S(=O)(=O)c2ccc(NC(=O)NC34CC5CC(CC(C5)C3)C4)cc2)nn1`, with 252 to 254 °C; and `CON=Cc1ccc(-c2ccccc2NC(=O)c2c(C)nn(C)c2F)cc1F`, with 158 to 161 °C. Regarding `CS(=O)c1nc(-c2ccc([N+](=O)[O-])cc2)c[nH]1` (centres undefined), the melting point was 220 to 222 °C. Consider `O=P(O)(O)COc1c(Br)cc(-c2c3ccccc3c(Br)c3sc4ccccc4c23)cc1Br`, for which the melting point fell in the range of 334 to 335 °C. As for `N#Cc1ccnc(C(N)=O)c1N`, the figure is over 310 °C; as for `FC(F)(F)c1ccc(-c2cc(C(F)(F)F)n3ncc(-c4cccnc4)c3n2)cc1`, 163 °C; as for `COc1ccccc1NS(=O)(=O)c1cccc([N+](=O)[O-])c1`, 130 to 132 °C. As for `Cc1cccc2c1[nH]c1c(C(=O)O)cccc12`, the figure is 286 °C. Then `O=C1CN(c2ccccc2)C(=O)N1C(=O)c1cccc(Oc2ccccc2)c1`, with 157 to 158 °C; and `COC(=O)c1cc(C(=O)NCCF)c2cc(Cc3ccc(F)cc3)cnc2c1O`, with 216 to 217 °C; and `COc1cn(-c2ccc(-c3cnn(C)c3)cc2F)nc(-c2ccnn2-c2ccccc2)c1=O`, with 195 to 197 °C. `CC(C)Oc1ccc(N)c(CC#N)n1` gave a melting point of 83 to 85 °C. Then `COc1cc(Cl)nnc1NS(=O)(=O)c1cccc(Cl)c1Cl`, with 226 to 227 °C; and `CCOC(=O)c1cc2nc(C)nc-2[nH]c1C(=O)OCC`, with 164 to 165 °C; and `CSc1ccc(-c2nn(Cc3ccccc3)c(=S)cc2-c2ccc(F)cc2)cc1`, with 108 °C. In the case of `N#CC(C=O)c1cnccn1` (centres undefined), the melting point is 192 to 194 °C.

Molecule `CC(CCc1ccccc1)N(Cc1ccccc1)CC(O)c1ccc(N)c(S(N)(=O)=O)c1` (centres undefined) yielded a melting point of 133 to 136 °C. Then `COc1ccc2nc3ccc(OC)cc3c(C(=O)O)c2c1`, with 192 to 193 °C. As for `CNc1nc(OC(C)C)ccc1[N+](=O)[O-]`, the figure is 75 to 76 °C; as for `Cc1ccnc(Nc2nc(-c3ccc4c(c3)OCCO4)cs2)c1`, 230 to 240 °C. `COc1cccc(C2CCc3cc(OC)ccc3C2=O)c1` (centres undefined) showed a melting point of 81 to 82 °C.

For `Oc1ccc(F)cc1Cc1ccc(F)cc1`, the melting point was 134 to 139 °C. Then `BrCCCCCCCOc1nc(-c2ccccc2)c(-c2ccccc2)n1-c1ccccc1`, with 97 to 99 °C. Molecule `Cn1cnc2c1c(=O)n(CCCO)c(=O)n2C` had a melting point of 139 to 140 °C. As for `CNS(=O)(=O)c1cccc(OC)c1C#N`, the melting point fell in the range of 121 to 128 °C.
